From publication PMC10204490, “Incubation Time Influences Organic Anion Transporter 1 Kinetics and Renal Clearance Predictions” (Journal of Xenobiotics, 2023)
Blank lines part the entries; values can stand above or below the compound they belong to.

Assays:
[1] = set-up: method as in earlier work; conditions: measured; cited from earlier work
[2] = cited from earlier work
[3] = set-up: method as in earlier work; conditions: cited from earlier work
[4] = system: OAT1; conditions: cited from earlier work
[5] = molecular target: T1, OAT1 (Homo sapiens, UniProt Q4U2R8); experiment: Inhibition of [3H]PAH uptake into CHO-OAT1 cells (IC50 determination); conditions: IC50 for inhibition of [3H]PAH uptake, [3H]PAH 20 nM, mean ± SEM, n=4
T1 sequence (Q4U2R8 1-563): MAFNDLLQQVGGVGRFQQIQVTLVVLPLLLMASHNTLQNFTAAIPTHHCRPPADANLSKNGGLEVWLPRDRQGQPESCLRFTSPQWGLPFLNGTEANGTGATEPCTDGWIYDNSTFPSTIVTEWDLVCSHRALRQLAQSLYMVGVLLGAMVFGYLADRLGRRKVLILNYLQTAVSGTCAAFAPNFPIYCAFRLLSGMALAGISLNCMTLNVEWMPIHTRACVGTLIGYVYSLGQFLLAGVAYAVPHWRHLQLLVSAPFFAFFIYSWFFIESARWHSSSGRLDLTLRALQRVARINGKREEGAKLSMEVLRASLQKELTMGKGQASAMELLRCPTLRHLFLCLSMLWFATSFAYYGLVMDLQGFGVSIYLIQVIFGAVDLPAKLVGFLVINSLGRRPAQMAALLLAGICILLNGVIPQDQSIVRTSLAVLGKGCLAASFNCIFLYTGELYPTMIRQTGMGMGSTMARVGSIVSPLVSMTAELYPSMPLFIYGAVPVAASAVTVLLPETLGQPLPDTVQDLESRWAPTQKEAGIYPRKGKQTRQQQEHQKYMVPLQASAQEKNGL
Description: All cells were grown to confluence in 24-well flat bottom plates for transport experiments.
Transport experiments involved aspirating the media, rinsing the cells quickly once with WB (0.4 mL), and then adding the transport solution (0.4 mL) to the wells for an amount of time as indicated in the figure legends. Uptake was stopped by aspirating the transport buffer and rinsing the wells three times with ice-cold WB (0.4 mL). The cells were lysed in 0.5 N NaOH/1% sodium dodecyl sulfate (0.4 mL) for 30 min on an orbital shaker and the lysates neutralized with 1 N HCl (0.2 mL). […] Several wells not used for transport were used for determining the number of cells per well with a hemocytometer.
As above, transport inhibition experiments involved aspirating the media, rinsing the cells quickly once with WB (0.4 mL), and then adding the transport solution (0.4 mL) to the wells for an amount of time as indicated in the figure legends.
[I] is the concentration of inhibitor in the transport solution. […] Japp is the apparent maximal transport rate, and C has the same meaning as noted above.

[6] = molecular target: T1, OAT1; experiment: Telmisartan pre-incubation and washout recovery of [3H]PAH uptake in CHO-OAT1 cells

SMILES: Nc1ccc(C(=O)NCC(=O)O)cc1 [PAH, Para-aminohippurate]
Fraction unbound in plasma (fup) [1]: 0.83 | Clinically-observed plasma clearance (CLi.v.) ([2]; 10 mg ∙ kg-1 intravenous dose): 40.6 L/h | Observed Vss [2]: 0.23 L/kg | Percentage of the dose excreted into the urine as acetyl-PAH [2]: ~ 10% | Reduction in plasma clearance of PAH by co-administered probenecid ([2]; human subjects, probenecid 1 g oral dose): 1.8 fold | LogP [3]: -2.2 | pKa [3]: 3.83

IC50 ([5]; 15 sec incubation): 9.7 ± 0.8 µM | IC50 ([5]; 10 min incubation): 9.2 ± 0.8 µM
SMILES: COc1ccc2[nH]c([S+]([O-])Cc3ncc(C)c(OC)c3C)nc2c1 (stereo not shown) [Omeprazole, omeprazole]
Inhibition mechanism at OAT1 [4]: mixed-type

Reversibility of OAT1 inhibition after washout ([6]; 30 min pre-treatment with telmisartan 0.5 µM, washout in WB with 10% FBS, single experiment): reversible, albeit slowly | IC50 ([5]; 15 sec incubation): 0.4 ± 0.07 µM | IC50 ([5]; 10 min incubation): 0.06 ± 0.02 µM
SMILES: CCCc1nc2c(C)cc(-c3nc4ccccc4n3C)cc2n1Cc1ccc(-c2ccccc2C(=O)O)cc1 [Telmisartan, telmisartan]
Effect of pre-incubation time on OAT1 transport activity ([6]; telmisartan 10, 50, 100 or 200 nM, pre-incubation 1, 5, 10 or 30 min, [3H]PAH uptake 15 s): decreased with increasing pre-incubation times | Inhibition mechanism at OAT1 [4]: non-competitive

SMILES: COc1ccc2c(c1)c(CC(=O)O)c(C)n2C(=O)c1ccc(Cl)cc1 [Indomethacin, indomethacin]
Inhibition mechanism at OAT1 [4]: competitive
